In the supplement of paper PMC10307832:

Legend:
Assay in all cases: relative viability (nuclei count vs DMSO), 5 days (fraction); higher = more cells survive
BAY61-3606 + Olaparib = compound: COC1=C(C=C(C=C1)C2=CC3=NC=CN3C(=N2)NC4=C(C=CC=N4)C(=O)N)OC [BAY61-3606] + O=C(c1cc(Cc2n[nH]c(=O)c3ccccc23)ccc1F)N1CCN(C(=O)C2CC2)CC1 [Olaparib] (partner 8 µM)
In short: (§1)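 Lung cancer cell lines in 1536-well plates got either a single drug or a fixed anchor-drug dose together with five library-drug doses (not always all listed) in √10 steps, by pin tool, on the day after seeding. Nuclei were counted after 5 days, and relative viability is the treated-to-vehicle ratio of nuclei counts. Values are medians of duplicate plates.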

BAY61-3606 + Luminespib = compound: COC1=C(C=C(C=C1)C2=CC3=NC=CN3C(=N2)NC4=C(C=CC=N4)C(=O)N)OC [BAY61-3606] + CCNC(=O)c1noc(-c2cc(C(C)C)c(O)cc2O)c1-c1ccc(CN2CCOCC2)cc1 [Luminespib] (partner 0.01 µM)
In short: as §1

Doxorubicin + AZD7762 = compound: COc1cccc2c1C(=O)c1c(O)c3c(c(O)c1C2=O)C[C@@](O)(C(=O)CO)C[C@@H]3O[C@H]1C[C@H](N)[C@H](O)[C@H](C)O1 [Doxorubicin] + NC(=O)Nc1cc(-c2cccc(F)c2)sc1C(=O)N[C@H]1CCCNC1 [AZD7762] (partner 0.2 µM)
In short: as §1

Doxorubicin + Pictilisib = compound: COc1cccc2c1C(=O)c1c(O)c3c(c(O)c1C2=O)C[C@@](O)(C(=O)CO)C[C@@H]3O[C@H]1C[C@H](N)[C@H](O)[C@H](C)O1 [Doxorubicin] + CS(=O)(=O)N1CCN(Cc2cc3nc(-c4cccc5[nH]ncc45)nc(N4CCOCC4)c3s2)CC1 [Pictilisib] (partner 1 µM)
In short: as §1

Cell Line | relative viability (BAY61-3606 + Olaparib; first compound 0.02 µM) | relative viability (BAY61-3606 + Olaparib; first compound 0.06325 µM) | relative viability (BAY61-3606 + Olaparib; first compound 0.2 µM) | relative viability (BAY61-3606 + Olaparib; first compound 0.6325 µM) | relative viability (BAY61-3606 + Olaparib; first compound 2 µM) | relative viability (BAY61-3606 + Luminespib; first compound 0.02 µM) | relative viability (BAY61-3606 + Luminespib; first compound 0.06325 µM) | relative viability (BAY61-3606 + Luminespib; first compound 0.2 µM) | relative viability (BAY61-3606 + Luminespib; first compound 0.6325 µM) | relative viability (BAY61-3606 + Luminespib; first compound 2 µM) | relative viability (Doxorubicin + AZD7762; first compound 0.001 µM) | relative viability (Doxorubicin + AZD7762; first compound 0.003162 µM) | relative viability (Doxorubicin + AZD7762; first compound 0.01 µM) | relative viability (Doxorubicin + AZD7762; first compound 0.03162 µM) | relative viability (Doxorubicin + AZD7762; first compound 0.1 µM) | relative viability (Doxorubicin + Pictilisib; first compound 0.001 µM) | relative viability (Doxorubicin + Pictilisib; first compound 0.003162 µM) | relative viability (Doxorubicin + Pictilisib; first compound 0.01 µM) | relative viability (Doxorubicin + Pictilisib; first compound 0.03162 µM) | relative viability (Doxorubicin + Pictilisib; first compound 0.1 µM)
NCI-H2347 | 0.575 | 0.629 | 0.603 | 0.597 | 0.559 | 0.373 | 0.362 | 0.386 | 0.658 | 0.412 | 0.618 | 0.895 | 0.668 | 0.686 | 0.58 | 0.563 | 0.598 | 0.803 | 0.615 | 0.635
HARA | 1.02 | 0.929 | 1.06 | 0.845 | 0.619 | 0.672 | 0.462 | 0.681 | 0.682 | 0.352 | 1.09 | 0.25 | 0.38 | 0.267 | 0.377 | 0.444 | 0.439 | 0.434 | 0.357 | 0.294
NCI-H1792 | 0.66 | 0.463 | 0.294 | 0.286 | 0.282 | 0.462 | 0.404 | 0.439 | 0.581 | 0.274 | 0.653 | 0.824 | 0.721 | 0.522 | 0.45 | 0.325 | 0.287 | 0.309 | 0.209 | 0.251
HCC-827 | 0.648 | 0.737 | 0.67 | 0.606 | 0.624 | 0.492 | 0.587 | 0.572 | 0.743 | 0.31 | 0.134 | 0.214 | 0.197 | 0.191 | 0.174 | 0.851 | 1.01 | 0.985 | 0.993 | 0.935
LC-2-ad | 0.703 | 0.701 | 0.723 | 0.717 | 0.578 | 1.2 | 0.98 | 1.1 | 0.963 | 0.646 | 0.831 | 0.781 | 0.859 | 0.827 | 0.725 | 0.496 | 0.406 | 0.417 | 0.359 | 0.227
NCI-H460 | 0.501 | 0.464 | 0.393 | 0.444 | 0.457 | 0.0381 | 0.0387 | 0.0289 | 0.0296 | 0.0322 | 0.659 | 0.635 | 0.561 | 0.177 | 0.0853 | 0.246 | 0.393 | 0.392 | 0.309 | 0.249
NCI-H2126 | 0.92 | 0.985 | 0.865 | 0.909 | 0.833 | 0.964 | 0.916 | 0.869 | 1.07 | 0.731 | 0.913 | 0.921 | 0.966 | 0.985 | 1 | 0.494 | 0.523 | 0.501 | 0.49 | 0.517
LCLC-103H | 0.764 | 0.786 | 0.847 | 0.758 | 0.772 | 0.989 | 1.06 | 0.969 | 1.06 | 0.737 | 0.781 | 0.815 | 0.75 | 0.767 | 0.826 | 0.618 | 0.677 | 0.569 | 0.588 | 0.578
NCI-H1975 | 0.858 | 0.798 | 0.733 | 0.707 | 0.516 | 0.18 | 0.199 | 0.268 | 0.247 | 0.119 | 0.738 | 0.623 | 0.764 | 0.599 | 0.391 | 0.292 | 0.3 | 0.237 | 0.177 | 0.198
NCI-H1944 | 0.439 | 0.38 | 0.397 | 0.434 | 0.258 | 0.802 | 0.674 | 0.734 | 0.688 | 0.282 | 0.512 | 0.573 | 0.451 | 0.483 | 0.46 | 0.327 | 0.346 | 0.381 | 0.345 | 0.347
NCI-H2085 | 0.863 | 0.868 | 0.726 | 0.843 | 0.698 | 0.416 | 0.469 | 0.486 | 0.443 | 0.412 | 0.972 | 0.974 | 0.856 | 1.1 | 0.896 | 0.509 | 0.537 | 0.512 | 0.459 | 0.519
NCI-H23 | 0.327 | 0.304 | 0.289 | 0.305 | 0.288 | 0.212 | 0.213 | 0.214 | 0.232 | 0.207 | 0.142 | 0.249 | 0.229 | 0.204 | 0.208 | – | 0.475 | 0.462 | 0.375 | 0.401
PC-14 | – | 0.284 | 0.212 | 0.235 | 0.204 | 0.191 | – | 0.171 | 0.173 | 0.129 | 0.387 | 0.366 | 0.519 | 0.259 | 0.15 | 0.619 | 0.926 | 0.809 | 0.568 | 0.663
NCI-H2087 | 0.547 | 0.682 | 0.489 | 0.54 | 0.448 | 0.188 | 0.132 | 0.181 | 0.196 | 0.139 | 1.3 | 1.32 | 1.32 | 1.34 | 1.17 | 0.703 | 0.886 | 0.841 | 0.495 | 0.454
NCI-H1755 | 0.908 | 0.883 | 0.852 | 0.911 | 0.789 | 0.367 | 0.495 | 0.397 | 0.433 | 0.384 | 0.523 | 0.489 | 0.393 | 0.485 | 0.491 | 0.342 | 0.508 | 0.451 | 0.444 | 0.44
